Data: US9085559B2, “Triazine-aryl-bis-indoles and process for preparation thereof” (COUNCIL OF SCIENTIFIC & INDUSTRIAL RESEARCH, priority 2010, dated 2015)

Legend:
[1] = tested on: airway hyperresponsiveness (AHR) in mouse model of asthma; assay: Airway hyperresponsiveness to methacholine in OVA sensitized and challenged mouse model of asthma; format: in vivo, BALB/c mice
Experimental: The above protocols described in the present invention can be utilized similarly for the synthesis of numerous analogues of ‘triazine-aryl-bis-indole’ class of novel compounds represented by Formula I. • Scheme V • With reference to FIG. 9, mice were sensitized with ovalbumin (OVA) intraperitonially (i.p.) on days 0, 7 and 14 as shown in scheme V. Sham group mice were sensitized with only alum dissolved in PBS. From day 21 to 30, mice were exposed to aerosol of OVA (3%) inhalation 25 minutes daily in a Plexiglas chamber (20×20×10 cm^3). […]
Airway responsiveness was measured by barometric plethysmography using whole-body plethysmography (WBP; Buxco, Troy, N.Y.) 12 hours after last saline or ovalbumin challenge. […] Enhanced pause (Penh) to methacholine as measured using barometric plethysmography is a valid indicator of bronchoconstriction in mice and can be used to measure AHR.
FIG. 3. […] AHR was measured after allergen challenge with increasing concentrations of methacholine and MChPC200 was calculated. […]
Airway responsiveness was measured by barometric plethysmography using whole-body plethysmography (WBP; Buxco, Troy, N.Y.) 12 hours after last saline or ovalbumin challenge. […]

[2] = tested on: rodent; assay: Prediction of acute oral LD50 from the IC50 by Halle's Registry of cytotoxicity (RC) prediction model; settings: log (LD50)=0.435×log (IC50)+0.625
Text: FIG. 8. IICT-TA67 is not toxic. To evaluate the cytotoxicity of test chemical (IICT-TA67) BALB/c 3T3 cell line was used for Neutral Red Uptake (NRU) cytotoxicity test. The test result has been used to determine IC50 for IICT-TA67 and acute oral toxicity (LD50) in rodent was predicted.
Basal cytotoxicity of IICT-TA67 has been performed to measure IC50 and thereafter predict in vivo acute oral LD50 values in rodent by using Halle's Registry of cytotoxicity (RC) prediction model: log (LD50)=0.435×log (IC50)+0.625 (Halle, 1998; Spielmann et al., 1999). Balb/c 3T3 Neutral Red Dye Uptake (NRU) cytotoxicity assay procedure was adopted (Liebsch & Spielmann 1995). In brief 3T3 cell were grown in 96 well microtitre plates and exposed to IICT-TA-67. After 48-hour incubation, the test material was removed and Neutral red (NR) solution was applied to the cells. […] The NRU was determined by using a microtitre plate reader to measure the optical density at 540 nm of the eluted dye in 96 well plate. A calculation of cell viability expressed as NRU was made for each concentration of the test chemical by using the mean NRU of 6 replicate values per test concentration. The cell viability value was compared with the mean NRU of all vehicle control values and relative cell viability was then expressed as percent of untreated vehicle control. […]

Compound: COc1ccc(C(c2[nH]c3ccccc3c2CC(=O)O)c2[nH]c3ccccc3c2CC(=O)O)cc1Oc1nc(NC2CC2)nc(NC2CC2)n1 [Compound 7, 2,2′-[2,2′-3-(4,6-bis-cyclopropylamino)-1,3,5-triazin-2-yl-oxy-4-methoxy-phenyl]-methylene-bis-(1H-indole-3,3-diyl)-diacetic acid]
- MChPC200 ([1]; OVA/OVA mice, 0.1, 1 and 10 mg/kg orally twice per day, versus OVA/OVA/VEH): significantly attenuated the decrease in MChPC200
- dose of maximum effect on MChPC200 ([1]; OVA/OVA mice, orally twice per day): 0.1 mg/kg
- predicted acute oral LD50 [2]: 430 mg/kg body weight
